# Experimental data: the supplement of paper PMC10307832
# Columns and labels:
# Experiment in all cases: relative viability (nuclei count vs DMSO), 5 days (fraction); higher = more cells survive
# [1] = compound: O=S(=O)(c1ccccc1)N(CC(F)(F)F)c1ccc(C(O)(C(F)(F)F)C(F)(F)F)cc1 + CC(C)C[C@H](NC(=O)[C@H](Cc1ccccc1)NC(=O)c1cnccn1)B(O)O [Bortezomib] (partner 0.002 µM)
# In short: (§1)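 The day after seeding in 1536-well plates, lung cancer cell lines were treated by pin tool with a single drug, or with a fixed anchor-drug dose together with five library-drug doses (not always all listed) in √10 steps. After 5 days, a combined fix-and-stain solution (final 0.05% Triton X-100, 1% formaldehyde, 1 ug/ml Hoechst) was added. Nuclei counted on 4× images gave relative viability as treated counts over vehicle counts, reported as the median of duplicate plates.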
# [2] = compound: O=S(=O)(c1ccccc1)N(CC(F)(F)F)c1ccc(C(O)(C(F)(F)F)C(F)(F)F)cc1 + C[C@]1(O)C[C@@H](c2nc(-c3ccc4ccc(-c5ccccc5)nc4c3)c3c(N)nccn32)C1 [Linsitinib] (partner 1 µM)
# In short: as §1
# RO-3306 + Luminespib = compound: C1=CC2=C(C=CC(=C2)C=C3C(=O)NC(=NCC4=CC=CS4)S3)N=C1 [RO-3306] + CCNC(=O)c1noc(-c2cc(C(C)C)c(O)cc2O)c1-c1ccc(CN2CCOCC2)cc1 [Luminespib] (partner 0.01 µM)
# In short: as §1
# RO-3306 + Crizotinib = compound: C1=CC2=C(C=CC(=C2)C=C3C(=O)NC(=NCC4=CC=CS4)S3)N=C1 [RO-3306] + C[C@@H](Oc1cc(-c2cnn(C3CCNCC3)c2)cnc1N)c1c(Cl)ccc(F)c1Cl [Crizotinib] (partner 1 µM)
# In short: as §1
Cell Line,relative viability ([1]; first compound 0.8 µM),relative viability ([1]; first compound 2.53 µM),relative viability ([1]; first compound 8 µM),relative viability ([2]; first compound 0.8 µM),relative viability ([2]; first compound 2.53 µM),relative viability ([2]; first compound 8 µM),relative viability (RO-3306 + Luminespib; first compound 0.01 µM),relative viability (RO-3306 + Luminespib; first compound 0.03162 µM),relative viability (RO-3306 + Luminespib; first compound 0.1 µM),relative viability (RO-3306 + Luminespib; first compound 0.3162 µM),relative viability (RO-3306 + Luminespib; first compound 1 µM),relative viability (RO-3306 + Crizotinib; first compound 0.01 µM),relative viability (RO-3306 + Crizotinib; first compound 0.03162 µM),relative viability (RO-3306 + Crizotinib; first compound 0.1 µM),relative viability (RO-3306 + Crizotinib; first compound 0.3162 µM),relative viability (RO-3306 + Crizotinib; first compound 1 µM)
H3255,0.564,0.708,0.761,0.962,0.867,0.832,0.899,0.938,0.763,0.837,0.866,0.926,0.836,0.761,0.916,0.642
ABC-1,0.27,0.297,0.293,0.85,0.581,0.485,0.548,0.719,0.527,0.658,0.898,1.21,0.85,1.12,1.18,1.44
LXF-289,0.952,0.899,0.898,0.929,0.795,0.821,0.766,0.654,0.593,0.603,0.577,0.846,0.817,0.808,0.726,0.76
NCI-H1975,0.327,0.415,0.299,1.09,1.16,0.88,0.443,0.142,0.242,0.175,0.294,1.18,0.815,1.06,1.04,0.997
LCLC-97TM1,0.397,0.457,0.723,0.197,0.179,0.202,0.765,0.711,0.61,0.752,0.93,–,0.379,0.313,0.338,0.31
IA-LM,0.727,0.522,0.77,0.656,0.34,0.397,–,–,–,–,–,0.905,–,0.923,1.11,0.546
HCC-15,1.08,0.923,0.948,0.798,0.758,0.812,0.488,0.42,0.355,0.315,0.418,1.01,0.707,0.848,0.925,0.763
NCI-H647,1.27,1.03,0.967,1.31,1.07,1.16,0.234,0.121,0.122,0.174,0.322,1.42,0.869,1.02,1.06,1.15
NCI-H1993,1.12,0.824,1.03,0.7,0.721,0.806,0.792,0.697,0.913,0.799,0.746,–,0.803,0.895,0.867,0.817
COR-L23,1.18,0.945,0.914,1.12,0.971,0.748,0.648,0.591,0.778,0.868,0.562,0.45,–,0.748,0.694,0.74
NCI-H1915,1.08,0.964,0.974,1.14,1.03,1.06,0.975,0.493,0.879,0.805,0.749,1.07,0.783,0.882,0.903,0.876
NCI-H1703,0.389,0.185,0.381,0.675,0.667,0.805,–,–,–,–,–,0.951,0.418,0.719,0.91,0.568
NCI-H727,1.23,0.762,0.737,0.279,0.376,0.212,0.244,–,0.453,0.906,0.3,1.33,0.781,0.837,1,0.964
LC-2-ad,1.02,1.03,0.898,0.701,0.831,0.816,1.01,0.907,0.966,1.09,1.02,0.404,0.416,0.397,0.425,0.368
NCI-H2009,0.91,0.891,0.929,1.15,1.01,1.03,1.1,0.979,1.07,0.992,0.976,1.05,0.976,1.02,1.07,1.04
A-427,0.973,0.916,1.07,1.04,1.03,1.12,0.94,0.867,0.928,0.884,1,1.02,0.883,0.904,0.955,0.845
SK-MES-1,–,–,–,1.15,1.17,0.972,0.708,0.973,0.705,0.605,0.968,1.1,0.867,0.969,0.991,1.07
NCI-H1734,1.18,0.917,1.07,1.04,0.883,0.932,0.168,0.172,0.205,0.195,0.171,0.714,0.656,0.694,0.624,0.623
LOU-NH91,0.536,0.51,0.484,0.996,0.92,0.915,0.348,0.298,0.312,0.28,0.291,0.938,0.728,0.739,0.706,0.685
LCLC-103H,1.18,1.04,1.12,1.06,1.17,0.936,0.872,0.882,0.955,0.93,1.03,1.1,1.01,1.01,1.05,0.951
NCI-H522,–,–,–,–,–,–,1.04,1.12,1.13,1.14,1.22,–,–,–,–,–
NCI-H1651,0.981,0.957,0.797,1.04,0.901,1.02,1.21,0.873,0.857,1.03,0.802,0.865,0.834,0.88,0.881,0.84
NCI-H23,1.45,1.23,1.09,0.627,0.571,0.605,0.237,–,–,0.216,0.204,0.493,0.304,0.462,0.56,0.425
NCI-H322M,1.48,1.02,1.23,1.09,0.915,0.999,0.801,0.708,0.907,0.943,0.835,0.861,0.999,1.1,0.95,0.953

Cell Line,relative viability ([1]; first compound 0.8 µM),relative viability ([1]; first compound 2.53 µM),relative viability ([1]; first compound 8 µM),relative viability ([2]; first compound 0.8 µM),relative viability ([2]; first compound 2.53 µM),relative viability ([2]; first compound 8 µM),relative viability (RO-3306 + Luminespib; first compound 0.01 µM),relative viability (RO-3306 + Luminespib; first compound 0.03162 µM),relative viability (RO-3306 + Luminespib; first compound 0.1 µM),relative viability (RO-3306 + Luminespib; first compound 0.3162 µM),relative viability (RO-3306 + Luminespib; first compound 1 µM),relative viability (RO-3306 + Crizotinib; first compound 0.01 µM),relative viability (RO-3306 + Crizotinib; first compound 0.03162 µM),relative viability (RO-3306 + Crizotinib; first compound 0.1 µM),relative viability (RO-3306 + Crizotinib; first compound 0.3162 µM),relative viability (RO-3306 + Crizotinib; first compound 1 µM)
HCC-44,1.06,0.871,0.863,0.717,0.705,0.658,1.2,1.13,1.02,1.11,0.922,0.825,0.83,0.881,0.835,0.818
UMC-11,0.929,0.743,0.972,1.13,1.08,1.13,0.955,0.908,1.05,1.08,1.06,0.49,0.555,0.62,0.906,0.48
NCI-H596,0.997,0.791,0.843,1.17,0.838,0.968,1.06,0.853,1.13,0.84,0.974,0.968,0.896,0.998,1.07,1.08
NCI-H650,0.832,0.776,0.823,0.739,0.761,0.938,0.716,0.755,0.813,0.798,0.789,0.56,0.648,0.694,0.691,0.703
NCI-H2228,1.13,0.872,0.906,0.615,0.727,0.391,0.2,0.148,0.147,0.14,0.255,0.471,0.335,0.408,0.445,0.541
NCI-H661,0.885,0.883,0.642,0.688,0.515,0.561,0.869,1.02,0.934,0.953,0.936,1.03,1.22,1.06,0.773,1.07
A549,–,–,–,0.697,0.585,0.603,–,–,–,–,–,0.872,0.705,0.751,0.687,0.706
EMC-BAC-2,1.07,1.1,1.02,0.902,0.846,0.796,1.25,0.983,1.23,1.16,1.15,0.768,0.723,0.767,0.735,0.702
NCI-H1944,–,–,–,1.25,1.08,1.13,0.83,0.667,0.681,0.62,0.678,1.11,0.98,1.16,1.21,1.03
NCI-H1299,1.02,0.981,0.946,1.11,0.954,0.782,–,–,–,–,–,1.02,0.943,0.998,0.988,0.991
HCC-78,0.531,0.39,0.52,0.45,0.426,0.444,–,–,–,–,–,0.357,0.324,0.369,0.372,0.335
LK-2,–,–,–,0.643,0.553,0.301,0.187,–,0.18,0.167,0.228,0.232,0.239,0.216,0.201,0.234
Calu-6,0.885,0.852,0.769,0.908,0.826,0.926,–,–,–,–,–,0.909,0.774,0.802,0.804,0.768
NCI-H1395,–,–,–,1.23,1.05,1.21,0.915,0.878,0.622,0.653,0.519,–,–,–,–,–
NCI-H358,–,–,–,0.598,0.521,0.578,0.408,0.292,0.376,0.316,0.229,0.612,0.618,0.439,0.446,0.375
NCI-H2170,–,–,–,–,–,–,0.485,0.803,0.419,0.669,0.639,1.34,0.758,1.15,1.24,1.13
NCI-H2342,–,–,–,–,–,–,0.742,0.627,0.727,0.759,0.73,–,–,–,–,–
NCI-H1650,0.203,0.187,0.194,–,–,–,0.183,0.217,0.2,0.227,0.224,1.02,0.921,0.973,1.02,0.732
NCI-H1793,–,–,–,0.836,0.641,0.66,0.129,0.162,0.195,0.205,0.191,–,–,–,–,–
SW 900,–,–,–,–,–,–,0.148,0.181,0.172,0.175,0.183,–,–,–,–,–
EBC-1,0.405,0.357,0.415,0.911,0.47,0.695,–,–,–,–,–,0.206,0.233,0.202,0.181,0.205
HCC-366,1.23,1.08,1.08,0.922,0.601,0.649,–,–,–,–,–,0.566,0.611,0.486,0.603,0.522
ChaGo-K-1,1.1,0.933,1.47,–,–,–,0.594,0.585,0.469,0.56,0.32,1.2,1.03,1.14,0.858,0.818
